According to patent publication US20250360091A1, “COMBINATION OF SGLT2 INHIBITOR AND MENTHOL AND USE THEREOF IN TREATMENT OF HEART DISEASE” (EAST CHINA UNIVERSITY OF SCIENCE AND TECHNOLOGY, priority 2023, published 2025):

Experiments:
[1] = system: Rat cardiomyocytes (H9c2); test: GD-induced myocardial cell damage model, CCK-8, SGLT2 inhibitors with L-menthol (Example 9); type: cell-based; details: single drugs: SGLT2 inhibitor 50 μM or menthol 200 μM; GD 36-48 h; untreated group 54.7%
[2] = system: intracellular calcium concentration; test: Intracellular calcium ion concentration with calcium probe Fluo4-AM (Example 5); type: cell-based; details: cariporide 100 μM, empagliflozin 50 μM, menthol 200 μM, combination 50 μM + 200 μM
Description: Intracellular calcium overload is an important factor in the transition of myocardial cells from reversible to irreversible damage. Intracellular calcium overload can be seen in a variety of cardiac pathological states, such as cardiac remodeling, myocardial ischemia-reperfusion injury, viral myocarditis, dilated cardiomyopathy, arrhythmias, and congestive heart failure. […] Empagliflozin can act on the sodium-hydrogen exchanger 1 (NHE1) on the myocardial cell membrane. When myocardial ischemia occurs, myocardial cell energy metabolism is impaired, and myocardial cells switch from fatty acid metabolism to sugar-free glycolysis, producing a large amount of lactic acid, which reduces the intracellular pH. As a regulatory protein for cell pH homeostasis, NHE1 can transport H^+ out of the cell by exchanging extracellular sodium ions, resulting in an increase in the intracellular sodium ion concentration. […] When mitochondrial function is impaired, the release of ROS increases, and ROS can further stimulate L-type calcium channels, promoting Ca^2+ influx, creating a vicious cycle. Empagliflozin inhibits the activity of NHE1 and can indirectly reduce the intracellular calcium ion concentration. Menthol, as an L-type calcium channel blocker, can synergistically reduce the intracellular calcium ion concentration with empagliflozin, playing a synergistic role. In order to verify this synergistic mechanism, the intracellular calcium ion concentration was detected using the calcium ion probe Fluo4-AM.
The experiment was divided into 5 groups, including control group (no drug group), cariporide group (positive control group, 100 μM), EMPA-50 (empagliflozin, 50 μM), M-200 (menthol, 200 μM), and E50+M200 (combination of 50 μM empagliflozin and 200 μM menthol).
• (1) Take an appropriate amount of Fluo4-AM stock solution (2 mM, BeyoTime, S1060) and dilute it to a 10 μM working solution with HBSS; • (2) For the cells to be tested (covering the bottom of the dish), remove the culture medium and wash with HBSS three times; • (3) Add 25 μL of Fluo4-AM working solution to each well, and then add 25 μL of compound solution to each well; • (4) Incubate at 37° C. for 30 min for fluorescent probe loading; • (5) Wash three times with HBSS, and add 100 μL of HBSS containing 10 mM CaCl2) to each well. Detect quantitatively the fluorescence of Fluo4-AM using a multifunctional fluorescence microplate reader (excitation wavelength 488 nm, emission wavelength 520 nm) to determine the changes in intracellular calcium ions.
Since empagliflozin indirectly affects intracellular calcium concentration by inhibiting NHE1, the intracellular environment was made acidic by using ammonium chloride solution to simulate the environment during myocardial ischemia, and the effect of the administered composition on intracellular calcium ions was tested. The NHE1 inhibitor cariporide was used as a positive control. The above step (3) was changed to add 25 μL of Fluo4-AM working solution to each well, mix the test compound with 80 mM NH4Cl solution at a 1:1 ratio, and then add 25 μL mixed solution of the compound and NH4Cl to each well (the final concentration of NH4Cl was 20 mM), and the remaining steps were the same as above.

| Molecule | cell survival rate [1] [%] | effect on intracellular calcium concentration (Fluo4-AM fluorescence) ([2]; NH4Cl present (20 mM, acidic intracellular conditions)) | effect on intracellular calcium concentration (Fluo4-AM fluorescence) ([2]; absence of NH4Cl) |
| --- | --- | --- | --- |
| CCOc1ccc(Cc2cc([C@]34OC[C@](CO)(O3)[C@@H](O)[C@H](O)[C@H]4O)ccc2Cl)cc1 [ertugliflozin] | 58.6 | – | – |
| CC(C)c1ccc(C(=O)NC(=N)N)cc1S(C)(=O)=O [cariporide] | – | significantly reduce intracellular calcium concentration | almost no effect |
| CCOc1ccc(Cc2cc([C@@H]3O[C@H](CO)[C@@H](O)[C@H](O)[C@H]3O)ccc2Cl)cc1 [dapagliflozin] | 58.9 | – | – |
| canagliflozin | 60.2 | – | – |
